Publication PMC11726359, “Discovery of Rezatapopt (PC14586), a First-in-Class, Small-Molecule Reactivator of p53 Y220C Mutant in Development” (ACS Medicinal Chemistry Letters, 2024)
Each block holds one compound with its values, some of them ahead of it.

Columns and labels:
[1] = molecular target: T1, recombinant His-tag Y220C p53 DNA binding domain (Homo sapiens, UniProt P04637, Y220C); experiment: TR-FRET DNA binding assay (SC150); assay type: biochemical
T1 construct: Y220C p53 DBD protein (amino acids #94-312); made in house
Source text: At the outset of our hit generation campaign, several small molecules targeting the p53 Y220C mutant protein were identified. Two notable examples, supported by crystallographic data, were the compounds from the carbazole series[6] (PhiKan83) and the iodophenol series[7] (PK1596) (Figure 1). To assess the in vitro potency of the p53 Y220C reactivators, a time-resolved fluorescence resonance energy transfer (FRET) assay was developed. In this assay, recombinant His-tag Y220C p53 DNA binding domain binds to biotin-labeled consensus DNA, and the FRET signal is measured between the allophycocyanin-conjugated anti-His-tag antibody and europium-conjugated streptavidin. The […] concentration required to increase DNA binding by 1.5-fold (SC150) could then be determined. The carbazole compound (PhiKan83) enhanced DNA binding with an SC150 of 37.2 μM. […]
Time-Resolved Fluorescence Resonance Energy Transfer (TR-FRET) Assay
DNA binding activity was measured by the TR-FRET assay. In this assay, the recombinant His6-tag Y220C p53 DNA binding domain (DBD) protein binds to biotin labeled consensus DNA. The binding of recombinant His6-tag Y220C p53 DBD protein and biotin-labeled consensus DNA is detected by the fluorescence resonance energy transfer (FRET) between allophycocyanin (APC) conjugated anti-His6 tag antibody and Europium-(Eu) conjugated Streptavidin. Test compounds, at 2 mM stock in DMSO, were diluted t hr e e-f ol d in serial dilutions in DMSO and 1.2 µL per well were added into 384-well polypropylene black plates (NUNC). Subsequently, 30 µL per well of 181 nM recombinant His6-tag Y220C p53 DBD protein (amino acids #94-312) and 9.1 nM of APC conjugated anti-His6 tag antibody (Columbia Biosciences) in ice-cold Assay Buffer 1 (50 mM Tris-HCl, pH 7.4, 75 mM KCl, 0.75 mM DTT and 0.2 mg/mL bovine serum albumin [BSA]) was added. As a background control, 30 µL of Assay Buffer 1 containing 9.1 nM of APC anti-His6 antibody (no Y220C protein) was also added into a second set of serial diluted compound plates. The samples were centrifuged at 1,200 rpm (Eppendorf 5810R plate centrifuge) for 1 minute and incubated at room temperature (20 °C) for 15 min. The samples were then incubated at 27 °C in a water bath for 48 min. Afterwards, 5 µL per well of 145 nM biotin labeled oligonucleotide from a consensus DNA p53 response element (a DNA duplex with 5’ to 3’sequence of […]
and biotin attached to the 3’ end of the complementary DNA) and 8.8 nM Eu-conjugated streptavidin (Columbia Biosciences) in Assay Buffer 2 (50 mM Tris-HCl, pH 7.4, 75 mM KCl and 0.2 mg/mL BSA) were added. The samples were centrifuged at 1,200 rpm for 1 min and incubated at room temperature (20 °C) for 20 min. Assay signals were monitored by reading excitation at 340 nm, and emission fluorescence at 615 and 665 nm, on an Envision reader (Perkin El mer). Normalized TR -FRET assay signal (Rn) was calculated by the formula:
Rn = [(A − B a − C × (D − Bd))/(D − Bd)] × (Dc − B d),
C = (Ac − B a)/(Dc − B d), […]

[2] = tested on: NUGC-3, gastric cancer cell line with a TP53 Y220C mutation; experiment: MTT cell proliferation assay; assay type: cell-based, human; conditions: for IC50: Homo sapiens, NUGC-3, 120 h, NUGC-3 cells, five days incubation
Protocol: We also evaluated the effects of these compounds on the growth and viability of four cancer cell lines in vitro. Two of the cell lines (NUGC-3, gastric cancer cell line with a TP53 Y220C mutation and T3M-4, pancreatic carcinoma cell line) have the TP53 Y220C mutation leading to the p53 Y220C mutant protein; SJSA-1 is a p53 WT cell line, and NUGC-3-KO is an isogenic p53 knockout cell line.[11] After incubating the cells with the compounds for five days, cell viability was measured using the 3-(4,5-dimethylthiazol-2-yl)-2,5-diphenyltetrazolium bromide (MTT) assay.
C = (Ac − B a)/(Dc − B d),
Prism (GraphPad) or XLfit software (IDBS).
Cells were seeded at an appropriate
Compounds were tested at eight concentrations with 2-fold serial dilutions. […]
with a reference wavelength of 650 nm. […]
untreated cells (control). […]

[3] = Pharmacokinetic study in mice; conditions: 50 mg/kg
Protocol: Pharmacokinetic parameters were evaluated in female CD-1 mice. Animals received an oral gavage dose of 50 mg/kg of the test article. The test article was formulated in a solution containing 2% hydroxypropyl
cellulose and 0.5% Tween 80 in water. Blood samples were collected at 0.5, 1, 2, 4, 7, and 24 h post dose.
Blood samples were processed into plasma, and the concentrations of the test article were determined by
LC-MS/MS. P harmacokinetic parameters were calculated using the Phoenix WinNonlin 6.3 program,
employing a non- compartmental model 200.

[4] = Table 2, concentration required to increase DNA binding by 1.5-fold
[5] = Table 1, concentration required to increase DNA binding by 1.5-fold
[6] = Table 3, concentration required to increase DNA binding by 1.5-fold
[7] = Figure 1, enhancement of DNA binding

SMILES: COc1cc(S(C)(=O)=O)ccc1NCC#Cc1cc2c(N[C@@H]3CCN(C)C[C@H]3F)cccc2n1CC(F)(F)F (racemic) [Compound 19, Rac-N-[(3R,4R)-3-fluoro-1-methyl-4-piperidyl]-2-[3-(2-methoxy-4-methylsulfonyl-anilino)prop-1-ynyl]-1-(2,2,2-trifluoroethyl)indol-4-amine]
SC150 [1, 4]: 0.02 µM | IC50 ([2]; Table 2): 3 µM

SMILES: COc1cc(S(C)(=O)=O)ccc1NCC#Cc1cc2c(N[C@@H]3CCN(C)C[C@@H]3F)cccc2n1CC(F)(F)F (racemic) [Compound 20, Rac-N-[(3S,4R)-3-fluoro-1-methyl-4-piperidyl]-2-[3-(2-methoxy-4-methylsulfonyl-anilino)prop-1-ynyl]-1-(2,2,2-trifluoroethyl)indol-4-amine]
SC150 [1, 4]: 0.009 µM | IC50 ([2]; Table 2): 0.7 µM | fold higher potency in the MTT assay ([2]; among the two pairs of stereoisomers from fluorine substitution of compound 13): over 3 fold

SMILES: CCn1c(C#CCNc2ccccc2)cc2cc(C(=O)NC3CCN(C)CC3)ccc21 [Compound 2, 2-(3-anilinoprop-1-ynyl)-1-ethyl-N-(1-methyl-4-piperidyl)indole-5-carboxamide]
SC150 [1, 5]: >150 µM

SMILES: CC(C)(C#N)c1ccc(NCC#Cc2cc3c(NC4CCOCC4)cccc3n2CC(F)(F)F)cn1 [Compound 9, 2-methyl-2-(5-((3-(4-((tetrahydro-2H-pyran-4-yl)amino)-1-(2,2,2-trifluoroethyl)-1H-indol-2-yl)prop-2-yn-1-yl)amino)pyridin-2-yl)propanenitrile]
SC150 [1, 5]: 0.105 µM

SMILES: CN1CCC(Nc2cccc3c2cc(C#CCNc2ccc(C(C)(C)C#N)nc2)n3CC(F)(F)F)CC1 [Compound 10, 2-methyl-2-(5-((3-(4-((1-methylpiperidin-4-yl)amino)-1-(2,2,2-trifluoroethyl)-1H-indol-2-yl)prop-2-yn-1-yl)amino)pyridin-2-yl)propanenitrile]
SC150 [1, 5]: 0.054 µM

SMILES: CN1CCC(Nc2cccc3c2cc(C#CCNc2ccc(S(C)(=O)=O)cc2)n3CC(F)(F)F)CC1 [Compound 11, N-(1-methylpiperidin-4-yl)-2-(3-((4-(methylsulfonyl)phenyl)amino)prop-1-yn-1-yl)-1-(2,2,2-trifluoroethyl)-1H-indol-4-amine]
SC150 [1, 5]: 0.027 µM

SMILES: Cc1cc(S(C)(=O)=O)ccc1NCC#Cc1cc2c(NC3CCN(C)CC3)cccc2n1CC(F)(F)F [Compound 12, 2-[3-(2-methyl-4-methylsulfonyl-anilino)prop-1-ynyl]-N-(1-methyl-4-piperidyl)-1-(2,2,2-trifluoroethyl)indol-4-amine]
SC150 [1, 5]: 0.030 µM

SMILES: CN1CCC(Nc2cccc3c2cc(C#CCNc2ccc(S(C)(=O)=O)cc2OC(F)(F)F)n3CC(F)(F)F)CC1 [Compound 14, N-(1-methyl-4-piperidyl)-2-[3-[4-methylsulfonyl-2-(trifluoromethoxy)anilino]prop-1-ynyl]-1-(2,2,2-trifluoroethyl)indol-4-amine]
SC150 [1, 5]: 0.030 µM

SMILES: COc1cc(S(C)(=O)=O)ccc1NCC#Cc1cc2c(N[C@H]3CCN(C)C[C@H]3F)cccc2n1CC(F)(F)F [Compound 21, N-[(3R,4S)-3-fluoro-1-methyl-4-piperidyl]-2-[3-(2-methoxy-4-methylsulfonyl-anilino)prop-1-ynyl]-1-(2,2,2-trifluoroethyl)indol-4-amine]
SC150 [1, 4]: 0.02 µM | IC50 ([2]; Table 2): 2.3 µM | Mouse PK Exposure AUC0-last ([3]; Table 2, PO): 23233 ng·h/mL | Mouse PK Exposure Cmax ([3]; Table 2, PO): 2353 ng/mL

SMILES: COc1cc(S(N)(=O)=O)ccc1NCC#Cc1cc2c(N[C@@H]3CCN(C)C[C@@H]3F)cccc2n1CC(F)(F)F [Compound 23, 4-((3-(4-(((3S,4R)-3-fluoro-1-methylpiperidin-4-yl)amino)-1-(2,2,2-trifluoroethyl)-1H-indol-2-yl)prop-2-yn-1-yl)amino)-3-methoxybenzenesulfonamide]
SC150 [1, 6]: 0.009 µM | IC50 ([2]; Table 3): 0.261 µM | Mouse PK Exposure AUC0-last ([3]; Table 3, PO): 8066 ng·h/mL | Mouse PK Exposure Cmax ([3]; Table 3, PO): 1310 ng/mL

SMILES: COc1cc(C(=O)N2CCN(C)CC2)ccc1NCC#Cc1cc2c(N[C@@H]3CCN(C)C[C@@H]3F)cccc2n1CC(F)(F)F [Compound 30, [4-[3-[4-[[(3S,4R)-3-fluoro-1-methyl-4-piperidyl]amino]-1-(2,2,2-trifluoroethyl)indol-2-yl]prop-2-ynyl-amino]-3-methoxy-phenyl]-(4-methylpiperazin-1-yl)methanone]
SC150 [1, 6]: 0.009 µM | IC50 ([2]; Table 3): 0.791 µM

SMILES: COc1cc(C(=O)NC2CCN(C)CC2)ccc1NCC#Cc1cc2c(N[C@@H]3CCN(C)C[C@@H]3F)cccc2n1CC(F)(F)F [Compound 31, 4-[3-[4-[[(3S,4R)-3-fluoro-1-methyl-4-piperidyl]amino]-1-(2,2,2-trifluoroethyl)indol-2-yl]prop-2-ynyl-amino]-3-methoxy-N-(1-methyl-4-piperidyl)benzamide]
SC150 [1, 6]: 0.005 µM | IC50 ([2]; Table 3): 1.16 µM

SMILES: CCN(CC)C1CCN(Cc2cc(C#CCNc3ccccc3)cc(I)c2O)CC1 [PK1596, reference compound]
SC150 [1, 7]: 1.6 µM

SMILES: CCn1c2ccccc2c2cc(CNC)ccc21 [PhiKan83, reference compound]
SC150 [1, 7]: 37.2 µM

Further lines, results first:

SC150 [1, 5]: 26.5 µM
SMILES: CCn1c(C#CCNc2ccccc2)cc2cc(CNC3CCOCC3)ccc21 [Compound 3, N-((1-ethyl-2-(3-(phenylamino)prop-1-yn-1-yl)-1H-indol-5-yl)methyl)tetrahydro-2H-pyran-4-amine]

SC150 [1, 5]: 6.3 µM
SMILES: CCn1c(C#CCNc2ccc(C)nc2)cc2cc(CNC3CCOCC3)ccc21 [Compound 4, N-(3-(1-ethyl-5-(((tetrahydro-2H-pyran-4-yl)amino)methyl)-1H-indol-2-yl)prop-2-yn-1-yl)-6-methylpyridin-3-amine]

SC150 [1, 5]: 6.4 µM
SMILES: CCn1c(C#CCNc2ccc(C(C)(C)C)nc2)cc2cc(CNC)ccc21 [Compound 5, 6-(tert-butyl)-3-(3-{1-ethyl-5-[(methylamino)methyl]-2-indolyl}-2-propynylamino)pyridine]

SC150 [1, 5]: 1.3 µM
SMILES: CCn1c(C#CCNc2ccc(C(C)(C)C#N)nc2)cc2cc(CNC3CCOCC3)ccc21 [Compound 6, 2-(5-((3-(1-ethyl-5-(((tetrahydro-2H-pyran-4-yl)amino)methyl)-1H-indol-2-yl)prop-2-yn-1-yl)amino)pyridin-2-yl)-2-methylpropanenitrile]

SC150 [1, 5]: 0.48 µM
SMILES: CC(C)(C#N)c1ccc(NCC#Cc2cc3cc(CNC4CCOCC4)ccc3n2CC(F)(F)F)cn1 [Compound 7, 2-methyl-2-(5-((3-(5-(((tetrahydro-2H-pyran-4-yl)amino)methyl)-1-(2,2,2-trifluoroethyl)-1H-indol-2-yl)prop-2-yn-1-yl)amino)pyridin-2-yl)propanenitrile]

SC150 [1, 5]: 1.300 µM
SMILES: CC(C)(C#N)c1ccc(NCC#Cc2cc3c(CNC4CCOCC4)cccc3n2CC(F)(F)F)cn1 [Compound 8, 2-methyl-2-(5-((3-(4-(((tetrahydro-2H-pyran-4-yl)amino)methyl)-1-(2,2,2-trifluoroethyl)-1H-indol-2-yl)prop-2-yn-1-yl)amino)pyridin-2-yl)propanenitrile]
